{"source": "patent US20120003310A1", "about": "(priority 2009, published 2012)", "key": {"[1]": {"conditions": "citrate salt of the drug substance, per reference; cited from earlier work"}, "[2]": {"assay": "Rasagiline citrate salt formation in solvents: extractable free rasagiline base (toluene extraction, TLC), pH, NMR equivalents", "conditions": "for Extracted R-PAI (%) / Extracted R-PAI (amount): free rasagiline base extracted or filtered from the citrate salt solution, solvent and mole proportions per example; for pH (after extraction of R-PAI): value in parentheses", "text": "(§1) The combined toluenic extract was evaporated to dryness.\nas §1"}, "[3]": {"conditions": "per reference; cited from earlier work"}, "[4]": {"conditions": "per reference; cited from earlier work", "remark": "listed apart in the source"}, "[5]": {"assay": "Appearance of citrate salts stored in closed sealed glass vials in refrigerator at 7±2° C.", "format": "physicochemical", "conditions": "sealed glass vial, refrigerator 7±2° C.", "text": "(§2) The changes were observed and recorded."}, "[6]": {"assay": "Hygroscopicity: citrate salts exposed to atmospheric air in open dishes at ambient temperature", "format": "physicochemical", "conditions": "for Changes on exposure to atmosphere (appearance): open dish, ambient temperature", "text": "as §2"}, "[7]": {"conditions": "such as hexane, toluene and ethylacetate"}, "[8]": {"assay": "Aqueous solubility of rasagiline base and rasagiline salts"}, "[9]": {"conditions": "AZILECT Product Label, May 2006; cited from earlier work"}, "[10]": {"conditions": "time of exposure 1:50-2:00 hrs:min"}}}
{"molecule": "C[C@@H]1CCCN1CCc1ccc2cc(-n3ncccc3=O)ccc2c1", "values": [{"measurement": "Polynorpb", "setting": "[1]", "result": "Crystalline"}]}
{"molecule": "N#Cc1ccc2[nH]c(O)c(-c3ccc(CN4CCOCC4)cn3)c2c1", "values": [{"measurement": "Polynorpb", "setting": "[1]", "result": "Crystalline"}]}
{"molecule": "C[C@@H]1CCN(C(=O)CC#N)C[C@@H]1N(C)c1ncnc2[nH]ccc12", "values": [{"measurement": "Polynorpb", "setting": "[1]", "result": "Crystalline"}]}
{"molecule": "CN1CCN(c2ccccc2C=C2SCCN(c3ccc(Cl)c(Cl)c3)C2=O)CC1", "values": [{"measurement": "Polynorpb", "setting": "[1]", "result": "Crystalline"}]}
{"molecule": "Cc1ccc(NC(=O)c2ccc(CN3CCN(C)CC3)cc2)cc1Nc1nccc(-c2cccnc2)n1", "values": [{"measurement": "Polynorpb", "setting": "[1]", "result": "Crystalline"}]}
{"molecule": "Cc1[nH]c(C=C2C(=O)Nc3ccc(F)cc32)c(C)c1C(=O)NCCN1CCCC1", "values": [{"measurement": "Polynorpb", "setting": "[1]", "result": "Crystalline"}]}
{"molecule": "O=C(O)CC(O)(CC(=O)O)C(=O)O.c1cnc2cc3c(cc2n1)C1CNCC3C1", "values": [{"measurement": "Polynorpb", "setting": "[1]", "result": "Crystalline"}]}
{"molecule": "C#CCN[C@@H]1CCc2ccccc21.O=C(O)CC(O)(CC(=O)O)C(=O)O", "values": [{"measurement": "free rasagiline that may be extracted from the aqueous solution of the salt", "setting": "[2]", "result": "A few percent"}, {"measurement": "stability of the salt in solvents", "setting": "[2]; aqueous and other solutions (alcohol, MEK, acetone)", "result": "stable in most solvents"}]}
{"molecule": "Cl", "note": "[Chloride]", "values": [{"measurement": "Hygroscopicity by KF", "setting": "[3]", "result": "Not hygroscopic"}]}
{"molecule": "C#CCN[C@@H]1CCc2ccccc21.C#CCN[C@@H]1CCc2ccccc21.O=S(=O)(O)CCS(=O)(=O)O", "note": "[Edisilate]", "values": [{"measurement": "Hygroscopicity by KF", "setting": "[3]", "result": "Not hygroscopic"}]}
{"molecule": "C#CCN[C@@H]1CCc2ccccc21.CCS(=O)(=O)O", "note": "[Esylate]", "values": [{"measurement": "Water solubility", "setting": "[4]", "result": ">=300 mg/ml"}]}
{"molecule": "C#CCN[C@@H]1CCc2ccccc21.O=C(O)CC(O)(CC(=O)O)C(=O)O", "note": "[Example 4b]", "values": [{"measurement": "Appearance", "setting": "[5]; storage 0 months", "result": "White powder"}, {"measurement": "Appearance", "setting": "[5]; storage 3 months", "result": "White powder"}, {"measurement": "Appearance", "setting": "[5]; storage 6 months", "result": "White powder"}, {"measurement": "Changes on exposure to atmosphere (appearance)", "setting": "[6]; time of exposure 0:00 hrs:min", "result": "Powder"}, {"measurement": "Changes on exposure to atmosphere (appearance)", "setting": "[6]; [10]", "result": "Semi-solid"}, {"measurement": "Changes on exposure to atmosphere (appearance)", "setting": "[6]; time of exposure 6:00 hrs:min", "result": "Syrup"}, {"measurement": "Changes on exposure to atmosphere (appearance)", "setting": "[6]; time of exposure 7:00 hrs:min", "result": "Syrup"}]}
{"molecule": "C#CCN[C@@H]1CCc2ccccc21.C#CCN[C@@H]1CCc2ccccc21.O=C(O)CC(O)(CC(=O)O)C(=O)O", "note": "[Example 4c]", "values": [{"measurement": "Appearance", "setting": "[5]; storage 0 months", "result": "White powder"}, {"measurement": "Appearance", "setting": "[5]; storage 3 months", "result": "White powder"}, {"measurement": "Appearance", "setting": "[5]; storage 6 months", "result": "White powder"}, {"measurement": "Changes on exposure to atmosphere (appearance)", "setting": "[6]; time of exposure 0:00 hrs:min", "result": "Powder"}, {"measurement": "Changes on exposure to atmosphere (appearance)", "setting": "[6]; time of exposure 0:50-1:00 hrs:min", "result": "Powder"}, {"measurement": "Changes on exposure to atmosphere (appearance)", "setting": "[6]; time of exposure 0:30 hrs:min", "result": "Powder"}, {"measurement": "Changes on exposure to atmosphere (appearance)", "setting": "[6]; [10]", "result": "Powder"}, {"measurement": "Changes on exposure to atmosphere (appearance)", "setting": "[6]; time of exposure 5:00 hrs:min", "result": "Lump powder"}]}
{"molecule": "C#CCN[C@@H]1CCc2ccccc21.C#CCN[C@@H]1CCc2ccccc21.C#CCN[C@@H]1CCc2ccccc21.O=C(O)CC(O)(CC(=O)O)C(=O)O", "note": "[Example 4d]", "values": [{"measurement": "Appearance", "setting": "[5]; storage 0 months", "result": "White powder"}, {"measurement": "Appearance", "setting": "[5]; storage 3 months", "result": "White powder"}, {"measurement": "Appearance", "setting": "[5]; storage 6 months", "result": "White powder"}, {"measurement": "Changes on exposure to atmosphere (appearance)", "setting": "[6]; time of exposure 0:00 hrs:min", "result": "Powder"}, {"measurement": "Changes on exposure to atmosphere (appearance)", "setting": "[6]; time of exposure 0:30 hrs:min", "result": "Powder"}, {"measurement": "Changes on exposure to atmosphere (appearance)", "setting": "[6]; time of exposure 5:00 hrs:min", "result": "Semi-solid"}, {"measurement": "Changes on exposure to atmosphere (appearance)", "setting": "[6]; time of exposure 6:00 hrs:min", "result": "Semi-solid"}]}
{"molecule": "C#CCN[C@@H]1CCc2ccccc21.O=C(O)CC(O)(CC(=O)O)C(=O)O", "note": "[Example 19.1]", "values": [{"measurement": "Extracted R-PAI (%)", "setting": "[2]", "result": 1.75, "unit": "%"}, {"measurement": "Extracted R-PAI (amount)", "setting": "[2]", "result": 0.06, "unit": "g"}]}
{"molecule": "C#CCN[C@@H]1CCc2ccccc21.O=C(O)CC(O)(CC(=O)O)C(=O)O", "note": "[Example 19.4]", "values": [{"measurement": "Extracted R-PAI (%)", "setting": "[2]", "result": "(22%)"}, {"measurement": "Extracted R-PAI (amount)", "setting": "[2]", "result": 1.51, "unit": "g"}]}
{"molecule": "C#CCN[C@@H]1CCc2ccccc21.O=C(O)CC(O)(CC(=O)O)C(=O)O", "note": "[Example 19.6]", "values": [{"measurement": "Extracted R-PAI (%)", "setting": "[2]", "result": "(43.3%)"}, {"measurement": "Extracted R-PAI (amount)", "setting": "[2]", "result": 4.44, "unit": "g"}]}
{"molecule": "C#CCN[C@@H]1CCc2ccccc21.O=C(O)CC(O)(CC(=O)O)C(=O)O", "note": "[Example 19.7]", "values": [{"measurement": "Extracted R-PAI (%)", "setting": "[2]", "result": "(38.2%)"}, {"measurement": "Extracted R-PAI (amount)", "setting": "[2]", "result": 3.92, "unit": "g"}]}
{"molecule": "C#CCN[C@@H]1CCc2ccccc21.O=C(O)CC(O)(CC(=O)O)C(=O)O", "note": "[Example 19.13]", "values": [{"measurement": "Extracted R-PAI (%)", "setting": "[2]", "result": "(48%)"}, {"measurement": "Extracted R-PAI (amount)", "setting": "[2]", "result": 2.47, "unit": "g"}]}
{"molecule": "C#CCN[C@@H]1CCc2ccccc21.O=C(O)CC(O)(CC(=O)O)C(=O)O", "note": "[Example 19.14]", "values": [{"measurement": "pH (after extraction of R-PAI)", "setting": "[2]", "result": 3.49}, {"measurement": "pH", "setting": "[2]; value outside parentheses, before extraction of R-PAI", "result": 3.53}]}
{"molecule": "C#CCN[C@@H]1CCc2ccccc21.O=C(O)CC(O)(CC(=O)O)C(=O)O", "note": "[Example 19.17]", "values": [{"measurement": "pH (after extraction of R-PAI)", "setting": "[2]", "result": "(3.41)"}]}
{"molecule": "C#CCN[C@@H]1CCc2ccccc21", "note": "[Mesylate]", "values": [{"measurement": "Hygroscopicity by KF", "setting": "[3]", "result": "Not hygroscopic"}]}
{"molecule": "C#CCN[C@@H]1CCc2ccccc21", "note": "[Solid R-PAI (Free Base)]", "values": [{"measurement": "Water solubility", "setting": "[4]", "result": "low"}, {"measurement": "Hygroscopicity by KF", "setting": "[3]", "result": "Not hygroscopic"}]}
{"molecule": "O=C(O)CC(O)(CC(=O)O)C(=O)O", "note": "[citric acid]", "values": [{"measurement": "Hygroscopicity by KF", "setting": "[3]", "result": "low"}]}
{"molecule": "C#CCN[C@@H]1CCc2ccccc21", "note": "[rasagiline, R(+)-N-propargyl-1-aminoindan]", "values": [{"measurement": "solubility in non-polar organic solvents", "setting": "[7]", "result": "very soluble"}, {"measurement": "amount dissolving in aqueous reaction solution of citric acid", "setting": "[8]", "result": "more than 10 wt %"}, {"measurement": "absolute bioavailability", "setting": "[9]", "result": "about 36%"}]}
{"molecule": "Oxalate", "values": [{"measurement": "Hygroscopicity by KF", "setting": "[3]", "result": "Not hygroscopic"}]}
{"molecule": "Phosphate", "values": [{"measurement": "Water solubility", "setting": "[4]", "result": ">=720 mg/ml"}]}
{"molecule": "Tosylate", "values": [{"measurement": "Water solubility", "setting": "[4]", "result": "60 to 70", "unit": "mg/mL"}]}
{"molecule": "rasagiline citrate", "values": [{"measurement": "water solubility compared to rasagiline base and other rasagiline salts", "setting": "[8]; Tables 22b and 22c", "result": "highest water solubility"}, {"measurement": "hygroscopicity compared to rasagiline base and other rasagiline salts", "setting": "[6]; Tables 22b and 22c", "result": "highest hygroscopicity"}]}
